Experimental data published in patent publication US20160122320A1, “USEFUL COMBINATIONS OF MONOBACTAM ANTIBIOTICS WITH BETA-LACTAMASE INHIBITORS” (Basilea Pharmaceutica AG, priority 2005, published 2016).

Columns and labels:
Experiment in all cases: MIC, NCCLS broth microdilution
Format in all cases: cell-based
[1] = test system: Enterobacter cloacae P99
[2] = test system: Acinetobacter sp. J2; conditions: for MIC of antibiotic: antibiotic alone, no inhibitor
Protocol: (§1) Antimicrobial activity of the compounds and of their combinations was determined against a selection of organisms according to the standard procedures described by the National Committee for Clinical Laboratory Standards (National Committee for Clinical Laboratory. Standards (2000). Methods for Dilution Antimicrobial Susceptibility Tests for Bacteria That Grow Aerobically-Fifth Edition: Approved Standard M7-A5. NCCLS, Wayne, Pa., USA).
(§2) In all cases the final concentration of DMSO incubated with the bacteria is less than or equal to 1%. […] Plates were incubated overnight at an appropriate temperature (30° C. or 37° C.) and optical densities assessed by eye. The MIC value is defined as the lowest compound concentration completely inhibiting visible growth of the test organism. When combinations between compounds of formula I with compounds of formula II and are evaluated the compounds of formula I are tested in dilution series as described above while the compounds of formula II and III-XIII were present in all wells at a constant concentration of 4 μg/mL each.

[3] = test system: Stenotrophomonas malthophilia 1AC736; conditions: for MIC of antibiotic: antibiotic alone, no inhibitor
[4] = test system: Enterobacter aerogenes B1
Protocol: as §1, §2

[5] = test system: Enterobacter cloacae MRW
Protocol: as §2

[6] = test system: Pseudomonas aeruginosa 1973E
In short: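 MIC read by eye as the lowest concentration giving no visible growth after overnight incubation (30° C. or 37° C.), following NCCLS M7-A5 microdilution with ≤1% final DMSO. For combinations, partner compounds (formula II, III-XIII) were fixed at 4 μg/mL each while formula I compounds were titrated.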

[7] = test system: Enterobacter cloacae B1102
Protocol: as §1, §2

[8] = with clavulanate (clavulanic acid)
[9] = + compound 323 and clavulanate, 4 mg/L each

## CC1C(NC(=O)C(=NOCc2cc(=O)c(O)cn2O)c2csc(N)n2)C(=O)N1S(=O)(=O)O (centres unmarked) [Compound 1]
[1]; with 323 and sulbactam
  MIC of antibiotic at fixed inhibitor concentration of 4 mg/L: 4 µg/mL
[1]; with 324 and clavulanate
  MIC of antibiotic at fixed inhibitor concentration of 4 mg/L: 4 µg/mL
[1]; with 501
  MIC of antibiotic at fixed inhibitor concentration of 4 mg/L: 16 µg/mL
[1]; [8]
  MIC of antibiotic at fixed inhibitor concentration of 4 mg/L: 32 µg/mL
[2]; Acinetobacter baumannii J2
  MIC of antibiotic: >32 µg/mL
[2]; Acinetobacter baumannii J2, with 111 and clavulanate
  MIC of antibiotic at fixed inhibitor concentration of 4 mg/L: 4 µg/mL
[2]; Acinetobacter baumannii J2, with 202 and clavulanate
  MIC of antibiotic at fixed inhibitor concentration of 4 mg/L: 4 µg/mL
[2]; Acinetobacter baumannii J2, with 206 and clavulanate
  MIC of antibiotic at fixed inhibitor concentration of 4 mg/L: 4 µg/mL
[2]; Acinetobacter baumannii J2, with 323 and clavulanate
  MIC of antibiotic at fixed inhibitor concentration of 4 mg/L: 16 µg/mL
[2]; Acinetobacter baumannii J2, with 323 and sulbactam
  MIC of antibiotic at fixed inhibitor concentration of 4 mg/L: 1 µg/mL
[2]; Acinetobacter baumannii J2, with 324 and clavulanate
  MIC of antibiotic at fixed inhibitor concentration of 4 mg/L: 32 µg/mL
[2]; Acinetobacter baumannii J2, with 501
  MIC of antibiotic at fixed inhibitor concentration of 4 mg/L: <0.06 µg/mL
[2]; Acinetobacter baumannii J2, with clavulanate (clavulanic acid)
  MIC of antibiotic at fixed inhibitor concentration of 4 mg/L: >32 µg/mL
[2]; Acinetobacter sp. J2
  MIC of antibiotic: >32 µg/mL
[3]; Stenotrophomonas malthophilia 1AC736
  MIC of antibiotic: 0.5 µg/mL
[3]; Stenotrophomonas maltophilia 1AC736
  MIC of antibiotic: 1 µg/mL
[3]; Stenotrophomonas maltophilia 1AC736, with 102 and sulbactam
  MIC of antibiotic at fixed inhibitor concentration of 4 mg/L: 2 µg/mL
[3]; Stenotrophomonas maltophilia 1AC736, with 111 and clavulanate
  MIC of antibiotic at fixed inhibitor concentration of 4 mg/L: 0.125 µg/mL
[3]; Stenotrophomonas maltophilia 1AC736, with 202 and clavulanate
  MIC of antibiotic at fixed inhibitor concentration of 4 mg/L: 0.125 µg/mL
[3]; Stenotrophomonas maltophilia 1AC736, with 206 and clavulanate
  MIC of antibiotic at fixed inhibitor concentration of 4 mg/L: 0.125 µg/mL
[3]; Stenotrophomonas maltophilia 1AC736, with 323 and clavulanate
  MIC of antibiotic at fixed inhibitor concentration of 4 mg/L: 0.125 µg/mL
[3]; Stenotrophomonas maltophilia 1AC736, with 323 and sulbactam
  MIC of antibiotic at fixed inhibitor concentration of 4 mg/L: 0.125 µg/mL
[3]; Stenotrophomonas maltophilia 1AC736, with 324 and clavulanate
  MIC of antibiotic at fixed inhibitor concentration of 4 mg/L: 0.125 µg/mL
[3]; Stenotrophomonas maltophilia 1AC736, with 501
  MIC of antibiotic at fixed inhibitor concentration of 4 mg/L: 0.25 µg/mL
[3]; Stenotrophomonas maltophilia 1AC736, with clavulanate (clavulanic acid)
  MIC of antibiotic at fixed inhibitor concentration of 4 mg/L: 0.5 µg/mL
[4]; + clavulanate 4 mg/L
  Minimal Inhibitory Concentration of antibiotic at fixed inhibitor concentration of 4 mg/L: >32 mg/L
[4]; + compound 206 4 mg/L
  Minimal Inhibitory Concentration of antibiotic at fixed inhibitor concentration of 4 mg/L: 16 mg/L
[4]; [9]
  Minimal Inhibitory Concentration of antibiotic at fixed inhibitor concentration of 4 mg/L: 4 mg/L
[4]; + compound 501 4 mg/L
  Minimal Inhibitory Concentration of antibiotic at fixed inhibitor concentration of 4 mg/L: >32 mg/L
[4]; antibiotic alone
  Minimal Inhibitory Concentration of antibiotic: 32 mg/L
[5]; + clavulanate 4 mg/L
  Minimal Inhibitory Concentration of antibiotic at fixed inhibitor concentration of 4 mg/L: 32 mg/L
[5]; + compound 206 4 mg/L
  Minimal Inhibitory Concentration of antibiotic at fixed inhibitor concentration of 4 mg/L: 16 mg/L
[5]; [9]
  Minimal Inhibitory Concentration of antibiotic at fixed inhibitor concentration of 4 mg/L: 4 mg/L
[5]; + compound 501 4 mg/L
  Minimal Inhibitory Concentration of antibiotic at fixed inhibitor concentration of 4 mg/L: 32 mg/L
[5]; antibiotic alone
  Minimal Inhibitory Concentration of antibiotic: >32 mg/L
[6]; antibiotic alone, no inhibitor
  MIC of antibiotic: 16 µg/mL
[6]; with 102 and clavulanate
  MIC of antibiotic at fixed inhibitor concentration of 4 mg/L: 2 µg/mL
[6]; with 111 and clavulanate
  MIC of antibiotic at fixed inhibitor concentration of 4 mg/L: 4 µg/mL
[6]; with 202 and clavulanate
  MIC of antibiotic at fixed inhibitor concentration of 4 mg/L: 4 µg/mL
[6]; with 206 and clavulanate
  MIC of antibiotic at fixed inhibitor concentration of 4 mg/L: 4 µg/mL
[6]; with 323 and clavulanate
  MIC of antibiotic at fixed inhibitor concentration of 4 mg/L: 8 µg/mL
[6]; with 323 and sulbactam
  MIC of antibiotic at fixed inhibitor concentration of 4 mg/L: 4 µg/mL
[6]; with 324 and clavulanate
  MIC of antibiotic at fixed inhibitor concentration of 4 mg/L: 8 µg/mL
[6]; with 501
  MIC of antibiotic at fixed inhibitor concentration of 4 mg/L: 8 µg/mL
[6]; [8]
  MIC of antibiotic at fixed inhibitor concentration of 4 mg/L: 8 µg/mL
[7]; + clavulanate 4 mg/L
  Minimal Inhibitory Concentration of antibiotic at fixed inhibitor concentration of 4 mg/L: 32 mg/L
[7]; + compound 206 4 mg/L
  Minimal Inhibitory Concentration of antibiotic at fixed inhibitor concentration of 4 mg/L: 16 mg/L
[7]; [9]
  Minimal Inhibitory Concentration of antibiotic at fixed inhibitor concentration of 4 mg/L: 8 mg/L
[7]; + compound 501 4 mg/L
  Minimal Inhibitory Concentration of antibiotic at fixed inhibitor concentration of 4 mg/L: 16 mg/L
[7]; antibiotic alone
  Minimal Inhibitory Concentration of antibiotic: >32 mg/L
